For one assay, the target named is T1, tc-FSAP (Homo sapiens, UniProt Q14520).
T1 construct: directed against the light chain of FSAP; Two-chain FSAP (tc-FSAP) was prepared, as described by Kannemeier et al; made in house
The assay is described as follows: tc-FSAP inhibition assay (LOCI signal, peptide substrate IV). The assay is classed as biochemical. Particulars: for signal: measured value after 15 minutes. As to the method: The kinetics of enzyme-inhibitor interaction was investigated by measuring enzyme activity as a function of the amount of inhibitor. In the tc-FSAP inhibition assays, constant amounts of enzyme (tc-FSAP, μg/mL) were preincubated with variable inhibitor concentrations (aprotinin from bovine lung, Fluka), to enable formation of the enzyme-inhibitor complex. Another assay was carried out without preincubation. The remaining protease activity was determined after adding the peptide substrate, as described in example 1.
120 μL test buffer pH 6.3, 10 μL anti-FSAP Chemibeads (200 μg/mL in test buffer), 10 μL purified tc-FSAP (10 μg/mL) and 10 μL test buffer with 0, 4.7 and 47.2 U/mL aprotinin were mixed in DIMENSION VISTA® LOCI® reaction cuvettes. Addition of 10 μL of biotinylated peptide substrate IV in test buffer and 10 μL Sensibeads (400 μg/mL in test buffer) took place without preincubation or after 10 minutes of preincubation at 37° C. The resultant LOCI® signal was measured kinetically, over a period of 15 minutes at 37° C., in a commercially available DIMENSION VISTA® LOCI® measuring unit (Siemens Healthcare Diagnostics Products GmbH) with 200 ms illumination at 680 nm and 1000 ms measuring time at 612 nm.
Another inhibitor used was a monoclonal antibody that inhibits FSAP activity (Siemens Healthcare Diagnostics Products GmbH, MAk No. 1102/570), which is directed against the light chain of FSAP and is formed by the hybridoma cell line DSM ACC2533 (see EP-A2-1334983), similarly to the assay with aprotinin.

For the next assay, the target named is T2, FSAP in plasma (Homo sapiens, UniProt Q14520).
T2 construct: from tissue; host or cells: citrate plasma
The assay is described as follows: Activation of FSAP in citrate plasma with dextran sulfate as cofactor, LOCI signal. The assay is classed as biochemical. The following applies: Test buffer with DXS 20 μg/mL. As to the method: Activation in the presence of dextran sulfate leads to a different signal height and signal dynamics versus the same sample, with the same FSAP concentration, but without activation by dextran sulfate (Table 4 and FIG. 2). The signal height produced by activation of the FSAP roughly corresponds to the signal of a purified tc-FSAP of equal concentration of 12 μg/mL with an enzyme activity of 1 PEU/mL (not shown).

T2 sequence (Q14520 24-313): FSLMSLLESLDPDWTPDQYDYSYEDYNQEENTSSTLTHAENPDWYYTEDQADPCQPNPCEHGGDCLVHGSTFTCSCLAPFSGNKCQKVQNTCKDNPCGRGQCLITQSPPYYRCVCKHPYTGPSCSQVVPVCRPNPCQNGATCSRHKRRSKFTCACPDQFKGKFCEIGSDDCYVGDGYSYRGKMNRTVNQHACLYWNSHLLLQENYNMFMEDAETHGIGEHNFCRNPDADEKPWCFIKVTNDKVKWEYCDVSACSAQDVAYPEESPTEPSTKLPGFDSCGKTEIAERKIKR
T2 sequence (Q14520 314-560): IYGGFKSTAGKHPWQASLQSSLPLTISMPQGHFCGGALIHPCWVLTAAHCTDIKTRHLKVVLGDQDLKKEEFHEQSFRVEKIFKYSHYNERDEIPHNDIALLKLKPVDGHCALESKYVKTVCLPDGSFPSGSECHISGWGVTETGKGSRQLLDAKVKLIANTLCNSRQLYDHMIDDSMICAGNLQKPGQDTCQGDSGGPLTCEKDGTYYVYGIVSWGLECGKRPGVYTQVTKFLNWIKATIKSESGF
T1 sequence (Q14520 314-560 limits assumed): as the sequence (Q14520 314-560) above
T1 sequence (Q14520 24-313 partner limits assumed): as the sequence (Q14520 24-313) above

On to aprotinin, for which the signal was 15.03 kcounts at tc-FSAP (Aprotinin 4.7 U/mL, with 10 min preincubation); 71.18 kcounts on tc-FSAP (Aprotinin 4.7 U/mL, without preincubation); 11.77 kcounts on tc-FSAP (Aprotinin 47.3 U/mL, with 10 min preincubation); 67.8 kcounts at tc-FSAP (Aprotinin 47.3 U/mL, without preincubation). For the same substance, at tc-FSAP (mainly after preincubation with tc-FSAP), the “Effect on LOCI signal of tc-FSAP (in words)” value is “strong signal-reducing effect”.

On to dextran sulfate sodium salt [DXS], for which the signal on FSAP in plasma (MW ≧ 500 kDa, peptide 10 μg/mL, incubation time 5 at +37° C.) is on record as 50.303 kcounts; on FSAP in plasma (MW ≧ 500 kDa, peptide 10 μg/mL, incubation time 10 at +37° C.), 106.500 kcounts; on FSAP in plasma (MW ≧ 500 kDa, peptide 10 μg/mL, incubation time 15 at +37° C.), 118.096 kcounts; on FSAP in plasma (peptide 0 μg/mL, incubation time 5 at +37° C.), 1.166 kcounts; on FSAP in plasma (peptide 0 μg/mL, incubation time 10 at +37° C.), 1.220 kcounts; on FSAP in plasma (peptide 0 μg/mL, incubation time 15 at +37° C.), 1.204 kcounts.

The values are drawn from patent US8945825B2, “Homogeneous activity test for determining enzymatic reactions” (Siemens Healthcare Diagnostics Products GmbH, priority 2010, dated 2015).
